The text below walks through data of patent US20200121801A1, “DRUG DELIVERY CONJUGATES CONTAINING UNNATURAL AMINO ACIDS AND METHODS FOR USING” (priority 2012, published 2020).

One data set relates to KB cells (FR+). It is filed as cell-based, Human. The conditions noted are these: for In vitro specificity (fold) (d): IC50 competed group vs non-competed group. The protocol: METHOD. Inhibition of Cellular DNA Synthesis. The compounds described herein are evaluated using an in vitro cytotoxicity assay that predicts the ability of the drug to inhibit the growth of folate receptor-positive cells, such as KB cells, RAW264.7 macrophages, and the like. It is to be understood that the choice of cell type can made on the basis of the susceptibility of those selected cells to the drug that forms the conjugate. The test compounds are comprised of folate linked to a respective chemotherapeutic drug, as prepared according to the processes described herein. The test cells are exposed to varying concentrations of folate-drug conjugate, and also in the absence or presence of at least a 100-fold excess of folic acid to assess activity as being specific to folate receptor mediation.
EXAMPLE. Conjugates of cytotoxic drugs described herein are active against KB cells. The activity is mediated by the folate receptor as indicated by competition experiments using co-administered folic acid. KB cells are exposed for up to 7 h at 37° C. to the indicated concentrations of folate-drug conjugate in the absence or presence of at least a 100-fold excess of folic acid. The cells are then rinsed once with fresh culture medium and incubated in fresh culture medium for 72 hours at 37° C. Cell viability was assessed using a ^3H-thymidine incorporation assay.
METHOD. In vitro activity against various cancer cell lines. IC50 values are generated for various cell lines. Cells are heavily seeded in 24-well Falcon plates and allowed to form nearly confluent monolayers overnight. Thirty minutes prior to the addition of the test compound, spent medium is aspirated from all wells and replaced with fresh folate-deficient RPMI medium (FFRPMI). A subset of wells are designated to receive media containing 100 μM folic acid. The cells in the designated wells are used to determine the targeting specificity. Without being bound by theory it is believed herein that the cytotoxic activity produced by test compounds in the presence of excess folic acid, i.e. where there is competition for FR binding, corresponds to the portion of the total activity that is unrelated to FR-specific delivery. Following one rinse with 1 mL of fresh FFRPMI containing 10% heat-inactivated fetal calf serum, each well receives 1 mL of medium containing increasing concentrations of test compound (4 wells per sample) in the presence or absence of 100 μM free folic acid as indicated. Treated cells are pulsed for 2 h at 37° C., rinsed 4 times with 0.5 mL of media, and then chased in 1 mL of fresh medium up to 70 h. Spent medium is aspirated from all wells and replaced with fresh medium containing 5 μCi/mL ^3H-thymidine. Following a further 2 h 37° C. incubation, cells are washed 3 times with 0.5 mL of PBS and then treated with 0.5 mL of ice-cold 5% trichloroacetic acid per well. After 15 min, the trichloroacetic acid is aspirated and the cell material solubilized by the addition of 0.5 mL of 0.25 N sodium hydroxide for 15 min. A 450 μL aliquot of each solubilized sample is transferred to a scintillation vial containing 3 mL of Ecolume scintillation cocktail and then counted in a liquid scintillation counter. Final results are expressed as the percentage of ^3H-thymidine incorporation relative to untreated controls.

Data set [1] deals with T1, folate receptors (FRs) on KB cells (Homo sapiens, UniProt P15328).
T1 construct: FR-positive KB cells are heavily seeded into 24-well cell culture plates; endogenous in cells; host or cells: KB cells
T1 sequence (P15328 25-234): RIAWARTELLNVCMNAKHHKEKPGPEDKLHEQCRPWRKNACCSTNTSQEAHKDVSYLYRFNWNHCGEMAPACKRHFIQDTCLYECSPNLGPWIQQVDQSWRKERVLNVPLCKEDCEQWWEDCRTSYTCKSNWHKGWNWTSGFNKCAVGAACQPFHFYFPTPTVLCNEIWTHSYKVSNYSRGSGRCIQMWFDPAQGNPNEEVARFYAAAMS
As to the kind of experiment: Relative affinity assay (3H-folic acid competition) on KB cells. The conditions noted are these: for Relative Affinity (a) compared to folic acid: folic acid = 1, in 10% serum/FDRPMI. It is filed as binding. The protocol: METHOD. Relative Affinity Assay. The affinity for folate receptors (FRs) relative to folate is determined according to a previously described method (Westerhof, G. R., J. H. Schornagel, et al. (1995) Mol. Pharm. 48: 459-471) with slight modification. Briefly, FR-positive KB cells are heavily seeded into 24-well cell culture plates and allowed to adhere to the plastic for 18 h. Spent incubation media is replaced in designated wells with folate-free RPMI (FFRPMI) supplemented with 100 nM ^3H-folic acid in the absence and presence of increasing concentrations of test article or folic acid. Cells are incubated for 60 min at 37° C. and then rinsed 3 times with PBS, pH 7.4. Five hundred microliters of 1% SDS in PBS, pH 7.4, is added per well. Cell lysates are then collected and added to individual vials containing 5 mL of scintillation cocktail, and then counted for radioactivity. Negative control tubes contain only the ^3H-folic acid in FFRPMI (no competitor). Positive control tubes contain a final concentration of 1 mM folic acid, and CPMs measured in these samples (representing non-specific binding of label) are subtracted from all samples.

The subject of the next data set is KB tumors. As to the kind of experiment: Inhibition of tumor growth, s.c. KB tumors in nu/nu mice. The class given is in vivo. The conditions noted are these: for In vivo activity (e): subcutaneous KB tumor in nu/nu mice. Also noted: key to In vivo activity (e): CR = complete response, where tumor volume, as defined herein, during the observation period was zero for all test animals in the group. The protocol: METHOD. Inhibition of Tumor Growth in Mice. […] For tumor cell inoculation, 1×10^6 M109 cells (a syngeneic lung carcinoma) in Balb/c strain, or 1×10^6 KB cells in nu/nu strain, in 100 μL are injected in the subcutis of the dorsal medial area (right axilla).
METHOD. Toxicity as Measured by Weight Loss. The percentage weight change of the test animals is determined on selected days post-tumor inoculation (PTI), and during dosing. The results are graphed.

Data set [2] is described as follows: Plasma clearance after s.c. administration. The note with it: EC1669 500 nmol/kg s.c. The class given is in vivo, Lewis rats. On the procedure:
METHOD. Plasma clearance. In vivo studies include a minimum of 3 test animals, such as rats, per time point. Illustratively, female Lewis rats with jugular vein catheters (Harlan, regular rodent diet) are given a single subcutaneous injection of test compound, such as EC1669 at 500 nmol/kg. Whole blood samples (300 μL) are collected at the following time points: 1 min, 10 min, 30 min, 1 h, 2 h, 3 h, 4 h, 8 h, and 12 h after injection. The blood samples are placed into anti-coagulant tubes containing 1.7 mg/mL of K3-EDTA and 0.35 mg/mL of N-maleoyl-beta-alanine (0.35 mg/mL) in a 0.15% acetic acid solution. Plasma samples are obtained by centrifugation for 3 min at ˜2,000 g and stored at −80° C. The amounts of test compound in the plasma and any metabolites, such as EC1669 and its two active metabolites aminopterin (AMT) and AMT hydrazide (EC0470), respectively, are quantified by LC-MS/MS.

Data set [3] can be described thus: Plasma stability / free drug release after s.c. dose (EC1496 vs EC0746). The class given is in vivo, rats. On the procedure:
METHOD. Human serum stability. Compounds described herein are tested in human serum for stability using conventional protocols and methods. Briefly, test compound is administered to the test animal, such as by subcutaneous injection. The plasma concentration of the conjugate, and optionally one or more metabolites, is monitored over time. The results are graphed to determine Cmax, Tmax, half-life, and AUC for the test compound and metabolites.
EXAMPLE. […] EC1495 and EC0746 (comparator compound) are each administered at 500 nmol/kg by subcutaneous injection. The plasma concentration of the conjugate and the metabolites (aminopterin and aminopterin hydrazide) are monitored over time. […] As also shown in the following table, free drug is released as the parent aminopterin and the hydrazide derivative (EC0470).

The mark [4] stands for this setting: IC50 for test compound when competed with excess folic acid, read-out: 50% competition (nM) (c).
[5] abbreviates: as determined by thymidine incorporation, read-out: In vitro IC50 (nM) (b).

Entries after “also recorded” stand apart in the source; their conditions may differ. Where two headings read alike, the source gives them in different places.

Turning to `CCCC(=O)OCN(C(=O)[C@@H](NC(=O)[C@H]1CCCCN1C)C(C)CC)[C@H](C[C@@H](OC(C)=O)c1nc(C(=O)N[C@@H](Cc2ccc(O)cc2)C[C@H](C)C(=O)NNC(=O)OCCSSC[C@@H](NC(=O)[C@@H](CC(=O)O)NC(=O)[C@@H](CC(=O)O)NC(=O)[C@@H](CCCNC(=N)N)NC(=O)[C@@H](CC(=O)O)NC(=O)CC[C@@H](NC(=O)c2ccc(NCc3cnc4nc(N)[nH]c(=O)c4n3)cc2)C(=O)O)C(=O)O)cs1)C(C)C` (stereo partly drawn) [EC1299], the “In vitro specificity (fold) (d)” value in the data set on KB cells (FR+) is 778 fold. In addition, the IC50 with KB cells (FR+) (setting [4]) came out at 700 nM; in the data set on KB cells (FR+) (setting [5]), 0.9 nM. Also, in data set [1], the “Relative Affinity (a) compared to folic acid” value (shortened to “Relative Affinity”) was 0.29. Moreover, in the data set with KB tumors, the “In vivo activity (e)” value was “CR”.
For the compound `CCCC(=O)OCN(C(=O)[C@@H](NC(=O)[C@H]1CCCCN1C)C(C)CC)[C@H](C[C@@H](OC(C)=O)c1nc(C(=O)N[C@@H](Cc2ccc(O)cc2)C[C@H](C)C(=O)NNC(=O)OCCSSC(C)(C)[C@@H](NC(=O)[C@@H](CC(=O)O)NC(=O)[C@@H](CC(=O)O)NC(=O)[C@@H](CCCNC(=N)N)NC(=O)[C@@H](CC(=O)O)NC(=O)CC[C@@H](NC(=O)c2ccc(NCc3cnc4nc(N)[nH]c(=O)c4n3)cc2)C(=O)O)C(=O)O)cs1)C(C)C` (stereo partly drawn) [EC1393], the “In vitro specificity (fold) (d)” value with KB cells (FR+) was 300 fold. In data set [1], the “Relative Affinity” value is given as 0.25.
As to “aminopterin hydrazide [EC0470, reference compound]”, in data set [2], the “AUC of EC1669-derived metabolite” value came out at 3.9 nmol·min/mL and the “elimination half-life of EC1669-derived metabolite” value is 1.87 h. In addition, the Cmax in data set [2] (plasma, read-out: Cmax of EC1669-derived metabolite) stood at 21 nM.
In the case of `CCCC(=O)OCN(C(=O)[C@@H](NC(=O)[C@H]1CCCCN1C)C(C)CC)C(C[C@@H](OC(C)=O)c1nc(C(=O)N[C@@H](Cc2ccc(O)cc2)C[C@H](C)C(=O)NNC(=O)OCCSSC[C@@H](NC(=O)[C@@H](CC(=O)O)NC(=O)[C@H](CC(=O)O)NC(=O)[C@H](CCCNC(=N)N)NC(=O)[C@H](CC(=O)O)NC(=O)CC[C@H](NC(=O)c2ccc(NCc3cnc4nc(N)[nH]c(=O)c4n3)cc2)C(=O)O)C(=O)O)cs1)C(C)C` (stereo partly drawn) [EC1549], the “In vitro specificity (fold) (d)” value in the data set on KB cells (FR+) is 78 fold. Moreover, the IC50 came out at 350 nM in the data set with KB cells (FR+) (setting [4]) and 4.5 nM in the data set on KB cells (FR+) (setting [5]). The “Relative Affinity” value in data set [1] stood at 0.90. Further, the “In vivo activity (e)” value in the data set on KB tumors was “CR”.
`N=c1[nH]c(N)nc2ncc(CNc3ccc(C(=O)N[C@@H](CCC(=O)NNC(=O)OCCSSC[C@H](NC(=O)[C@H](CCC(=O)NC[C@H](O)[C@@H](O)[C@H](O)[C@H](O)CO)NC(=O)[C@H](CCC(=O)O)NC(=O)[C@H](CCC(=O)NC[C@H](O)[C@@H](O)[C@H](O)[C@H](O)CO)NC(=O)[C@H](CCC(=O)O)NC(=O)[C@H](CCC(=O)NC[C@H](O)[C@@H](O)[C@H](O)[C@H](O)CO)NC(=O)CC[C@H](NC(=O)c4ccc(NCc5cnc6nc(N)[nH]c(=O)c6n5)cc4)C(=O)O)C(=O)O)C(=O)O)cc3)nc12` [EC0531, reference compound]: the “In vitro specificity (fold) (d)” value in the data set on KB cells (FR+) is given as 237 fold. The “In vivo activity (e)” value with KB tumors was “CR”.
For the compound `CCCC(=O)OCN(C(=O)[C@@H](NC(=O)[C@H]1CCCCN1C)C(C)CC)[C@H](C[C@H](OC(C)=O)c1nc(C(=O)N[C@H](Cc2ccc(O)cc2)C[C@H](C)C(=O)NNC(=O)OCCSSC[C@H](NC(=O)[C@H](CCC(=O)NC[C@H](O)[C@@H](O)[C@H](O)[C@H](O)CO)NC(=O)[C@H](CCC(=O)O)NC(=O)[C@H](CCC(=O)NC[C@H](O)[C@@H](O)[C@H](O)[C@H](O)CO)NC(=O)[C@H](CCC(=O)O)NC(=O)[C@H](CCC(=O)NC[C@H](O)[C@@H](O)[C@H](O)[C@H](O)CO)NC(=O)CC[C@H](NC(=O)c2ccc(NCc3cnc4nc(N)[nH]c(=O)c4n3)cc2)C(=O)O)C(=O)O)cs1)C(C)C` (stereo partly drawn) [EC0746, reference compound], in data set [3] (500 nmol/kg s.c., plasma), the “Free drug released (%): AMT” value amounted to 11.0%, the “Free drug released (%): AMT-hydrazide (EC0470)” value is recorded as 7.4% and the “Free drug released (%): Total” value came out at 18.4%. Moreover, the “drug released relative to EC1496” value in data set [3] (after a subcutaneous dose in rats) is “more than 2 fold”.
For the compound `CN(Cc1cnc2nc(N)nc(N)c2n1)c1ccc(C(=O)N[C@@H](CCC(=O)O)C(=O)O)cc1` [methotrexate, reference compound], in data set [1] (in comparison to EC1669), the “binding to the cell surface FRs” value is reported as “poor binding”.
As for `CCCCOCN(C(=O)[C@@H](NC(=O)[C@H]1CCCCN1C)C(C)CC)[C@H](C[C@@H](OC(C)=O)c1nc(C(=O)N[C@@H](Cc2ccc(O)cc2)C[C@H](C)C(=O)NNC(=O)OCCSSC[C@@H](NC(=O)[C@H](CCC(=O)NC[C@H](O)[C@@H](O)[C@H](O)[C@H](O)CO)NC(=O)[C@@H](CCC(=O)O)NC(=O)[C@H](CCC(=O)NC[C@H](O)[C@@H](O)[C@H](O)[C@H](O)CO)NC(=O)[C@@H](CCC(=O)O)NC(=O)[C@H](CCC(=O)NC[C@H](O)[C@@H](O)[C@H](O)[C@H](O)CO)NC(=O)CC[C@@H](NC(=O)c2ccc(NCc3cnc4nc(N)[nH]c(=O)c4n3)cc2)C(=O)O)C(=O)O)cs1)C(C)C` (stereo partly drawn) [EC1663], in the data set with KB tumors (0.5 μmol/kg i.v. TIW, 2 weeks), the “partial responses (test animals)” value is given as 4/4 and the whole animal toxicity result is recorded as “did not exhibit significant host animal toxicity; also recorded: whole animal toxicity was not observed”.
